From ChEMBL document CHEMBL4732099, “ROS-responsive and multifunctional anti-Alzheimer prodrugs: Tacrine-ibuprofen hybrids via a phenyl boronate linker” (Eur J Med Chem, 2021)
The source made the active and inactive calls. No cut-off for these calls is given here.

Tests used:
SH-SY5Y [1] = assay: Neuroprotective activity against H2O2-induced cytotoxicity in human SH-SY5Y cells assessed as cell viability at 5 uM preincubated for 6 hrs followed by H2O2 addition and measured after 24 hrs by MTT assay (reference value: 20%); assay type: functional; settings: time 30 hrs, read-out: Activity
Acetylcholinesterase = Acetylcholinesterase (Electrophorus electricus, UniProt O42275); assay: Inhibition of electric eel AChE using acetylthiocholine iodide as substrate preincubated for 5 mins followed by substrate addition and measured after 1 min in presence of H2O2 by Ellman's method
SH-SY5Y [2] = assay: Cytotoxicity against human SH-SY5Y cells assessed as reduction in cell viability at 7.81 to 15.62 uM measured after 72 hrs by MTT assay; assay type: cell-based; settings: dose 7.81-15.62 µM
[3] = molecular target: Acetylcholinesterase (Electrophorus electricus) (UniProt O42275); assay: Inhibition of electric eel AChE at 10 uM using acetylthiocholine iodide as substrate preincubated for 5 mins followed by substrate addition and measured after 1 min by Ellman's method relative to control; settings: time 6.0 min
SH-SY5Y [4] = assay: Cytotoxicity against human SH-SY5Y cells assessed as reduction in cell viability at 31.25 uM measured after 72 hrs by MTT assay; assay type: cell-based
SH-SY5Y [5] = assay: Neuroprotective activity against H2O2-induced apoptosis in human SH-SY5Y cells assessed as early apoptotic cells at 5 uM preincubated for 6 hrs followed by H2O2 addition and measured after 24 hrs by annexin V FITC/propidium iodide staining based flow cytometry (reference value: 0.9%); assay type: functional; settings: time 30 hrs
in vitro = settings: human, SH-SY5Y cells
SH-SY5Y [6] = assay: Neuroprotective activity against H2O2-induced apoptosis in human SH-SY5Y cells assessed as viable cells at 5 uM preincubated for 6 hrs followed by H2O2 addition and measured after 24 hrs by annexin V FITC/propidium iodide staining based flow cytometry (reference value: 41.7%); assay type: functional; settings: time 30 hrs, read-out: Activity
HepG2 = assay: Hepatotoxicity in human HepG2 cells assessed as increase in ROS accumulation by measuring increase in green fluorescence at 25 to 50 uM measured after 24 hrs by ROS tracker based laser confocal microscopic analysis; assay type: toxicity, cell-based; settings: hepg2, 24 h, dose 25-50 µM
SH-SY5Y [7] = assay: Neuroprotective activity against H2O2-induced cytotoxicity in human SH-SY5Y cells assessed as cell viability at 20 uM preincubated for 6 hrs followed by H2O2 addition and measured after 24 hrs by MTT assay (reference value: 20%); assay type: functional; settings: time 30 hrs, read-out: Activity
SH-SY5Y [8] = assay: Neuroprotective activity against H2O2-induced apoptosis in human SH-SY5Y cells assessed as late apoptotic cells at 5 uM preincubated for 6 hrs followed by H2O2 addition and measured after 24 hrs by annexin V FITC/propidium iodide staining based flow cytometry (reference value: 13.1%); assay type: functional; settings: time 30 hrs
BV-2 [9] = assay: Antiinflammatory activity in mouse BV-2 cells assessed as fold change in LPS-induced TNFalpha mRNA expression at 5 uM preincubated for 6 hrs followed by LPS stimulation and measured after 24 hrs RT-qPCR analysis (reference value: 3.86 +/- 0.25); assay type: functional; settings: time 30 hrs
SH-SY5Y [10] = assay: Neuroprotective activity against H2O2-induced apoptosis in human SH-SY5Y cells assessed as reduction in cleaved caspase-3 expression preincubated for 6 hrs followed by H2O2 addition and measured after 24 hrs by Western blot analysis; assay type: functional, cell-based; settings: dose 5-10 µM, time 30.0 hrs
Rattus norvegicus [11] = assay: Cognitive enhancing effect in Sprague-Dawley rat model of amyloid beta (25 to 35) peptide-induced memory impairment assessed as number of platform crossing at 0.9 mg per 100 g, […] qd for 4 weeks administered via gavage and measured after 5 days by Morris water maze test (reference value: 0.4); assay type: functional; settings: time 33 day
SH-SY5Y [12] = assay: Neuroprotective activity against H2O2-induced apoptosis in human SH-SY5Y cells assessed as necrotic cells at 10 uM preincubated for 6 hrs followed by H2O2 addition and measured after 24 hrs by annexin V FITC/propidium iodide staining based flow cytometry (reference value: 44.3%); assay type: functional; settings: time 30 hrs
SH-SY5Y [13] = assay: Neuroprotective activity against H2O2-induced apoptosis in human SH-SY5Y cells assessed as necrotic cells at 5 uM preincubated for 6 hrs followed by H2O2 addition and measured after 24 hrs by annexin V FITC/propidium iodide staining based flow cytometry (reference value: 44.3%); assay type: functional; settings: time 30 hrs
SH-SY5Y [14] = assay: Neuroprotective activity against H2O2-induced apoptosis in human SH-SY5Y cells assessed as late apoptotic cells at 10 uM preincubated for 6 hrs followed by H2O2 addition and measured after 24 hrs by annexin V FITC/propidium iodide staining based flow cytometry (reference value: 13.1%); assay type: functional; settings: time 30 hrs
[15] = Prodrug activation assessed as hydrolysis of benzyl ester bonds in presence of H2O2 by 1H-NMR analysis
BV-2 [16] = assay: Antiinflammatory activity in mouse BV-2 cells assessed as reduction in LPS-induced ROS level at 10 uM preincubated for 6 hrs followed by LPS stimulation and measured after 18 hrs by DCFH-DA staining based laser confocal microscopic analysis; assay type: functional, cell-based
Rattus norvegicus [17] = assay: Cognitive enhancing effect in Sprague-Dawley rat model of amyloid beta (25 to 35) peptide-induced memory impairment assessed as time spent in target platform at 0.9 mg per 100 g, […] qd for 4 weeks administered via gavage and measured after 5 days by Morris water maze test (reference value: 0.5 sec); assay type: functional; settings: time 33 day
SH-SY5Y [18] = assay: Neuroprotective activity against H2O2-induced apoptosis in human SH-SY5Y cells assessed as increase in viable cells preincubated for 6 hrs followed by H2O2 addition and measured after 24 hrs by annexin V FITC/propidium iodide staining based flow cytometry; assay type: functional, cell-based; settings: dose 5-10 µM, time 30.0 hrs
SH-SY5Y [19] = assay: Induction of apoptosis in human SH-SY5Y cells assessed as late apoptotic cells at 10 uM incubated for 24 hrs by annexin V FITC/propidium iodide staining based flow cytometry (reference value: […]); assay type: cell-based
SH-SY5Y [20] = assay: Neuroprotective activity against H2O2-induced apoptosis in human SH-SY5Y cells assessed as reduction in cells with red fluorescence at 10 uM preincubated for 6 hrs followed by H2O2 addition and measured after 24 hrs by calcein AM/propidium iodide staining based laser confocal microscope; assay type: functional, cell-based; settings: time 30.0 hrs
SH-SY5Y [21] = assay: Neuroprotective activity against H2O2-induced apoptosis in human SH-SY5Y cells assessed as increase in Bcl-2 expression preincubated for 6 hrs followed by H2O2 addition and measured after 24 hrs by Western blot analysis; assay type: functional, cell-based; settings: dose 5-10 µM, time 30.0 hrs
SH-SY5Y [22] = assay: Neuroprotective activity against H2O2-induced apoptosis in human SH-SY5Y cells assessed as viable cells at 10 uM preincubated for 6 hrs followed by H2O2 addition and measured after 24 hrs by annexin V FITC/propidium iodide staining based flow cytometry (reference value: 41.7%); assay type: functional; settings: time 30 hrs, read-out: Activity
SH-SY5Y [23] = assay: Induction of apoptosis in human SH-SY5Y cells assessed as necrotic cells at 10 uM incubated for 24 hrs by annexin V FITC/propidium iodide staining based flow cytometry (reference value: 0.8 %); assay type: cell-based
BV-2 [24] = assay: Antiinflammatory activity in mouse BV-2 cells assessed as reduction in LPS-induced TNFalpha mRNA expression preincubated for 6 hrs followed by LPS stimulation and measured after 24 hrs RT-qPCR analysis; assay type: functional, cell-based; settings: dose 5-10 µM, time 30.0 hrs
SH-SY5Y [25] = assay: Neuroprotective activity against H2O2-induced apoptosis in human SH-SY5Y cells assessed as reduction in Bax expression preincubated for 6 hrs followed by H2O2 addition and measured after 24 hrs by Western blot analysis; assay type: functional, cell-based; settings: dose 5-10 µM, time 30.0 hrs
SH-SY5Y [26] = assay: Induction of apoptosis in human SH-SY5Y cells assessed as early apoptotic cells at 10 uM incubated for 24 hrs by annexin V FITC/propidium iodide staining based flow cytometry (reference value: […]); assay type: cell-based
SH-SY5Y [27] = assay: Neuroprotective activity against H2O2-induced apoptosis in human SH-SY5Y cells assessed as early apoptotic cells at 10 uM preincubated for 6 hrs followed by H2O2 addition and measured after 24 hrs by annexin V FITC/propidium iodide staining based flow cytometry (reference value: 0.9%); assay type: functional; settings: time 30 hrs
Rattus norvegicus [28] = assay: Cognitive enhancing effect in Sprague-Dawley rat model of amyloid beta (25 to 35) peptide-induced memory impairment assessed as reduction in escape latency time at 0.9 mg per 100 g, […] qd for 4 weeks administered via gavage and measured after 4 to 5 days by Morris water maze test; assay type: functional, organism-based; settings: time 32-33 day
BV-2 [29] = assay: Antiinflammatory activity in mouse BV-2 cells assessed as fold change in LPS-induced IL1beta mRNA expression at 10 uM preincubated for 6 hrs followed by LPS stimulation and measured after 24 hrs RT-qPCR analysis (reference value: 3.68 +/- 0.02); assay type: functional; settings: time 30 hrs
BV-2 [30] = assay: Antiinflammatory activity in mouse BV-2 cells assessed as fold change in LPS-induced IL1beta mRNA expression at 5 uM preincubated for 6 hrs followed by LPS stimulation and measured after 24 hrs RT-qPCR analysis (reference value: 3.68 +/- 0.02); assay type: functional; settings: time 30 hrs
BV-2 [31] = assay: Antiinflammatory activity in mouse BV-2 cells assessed as reduction in LPS-induced IL1beta mRNA expression preincubated for 6 hrs followed by LPS stimulation and measured after 24 hrs RT-qPCR analysis; assay type: functional, cell-based; settings: dose 5-10 µM, time 30.0 hrs
BV-2 [32] = assay: Antiinflammatory activity in mouse BV-2 cells assessed as fold change in LPS-induced TNFalpha mRNA expression at 10 uM preincubated for 6 hrs followed by LPS stimulation and measured after 24 hrs RT-qPCR analysis (reference value: 3.86 +/- 0.25); assay type: functional; settings: time 30 hrs
[33] = Drug uptake in mouse BV-2 cells at 10 uM measured after 12 hrs by laser scanning confocal microscopic analysis; assay type: ADME, cell-based; settings: bv-2, 12 h
[34] = Drug uptake in human SH-SY5Y cells at 10 uM measured after 12 hrs by laser scanning confocal microscopic analysis; assay type: ADME, cell-based
SH-SY5Y [35] = assay: Cytotoxicity against human SH-SY5Y cells assessed as reduction in cell viability at 7.81 to 31.25 uM measured after 72 hrs by MTT assay; assay type: cell-based; settings: dose 7.81-31.25 µM
SH-SY5Y [36] = assay: Neuroprotective activity against H2O2-induced apoptosis in human SH-SY5Y cells assessed as reduction in Bax expression at 10 uM preincubated for 6 hrs followed by H2O2 addition and measured after 24 hrs by Western blot analysis; assay type: functional, cell-based; settings: time 30.0 hrs
SH-SY5Y [37] = assay: Neuroprotective activity against H2O2-induced apoptosis in human SH-SY5Y cells assessed as reduction in cleaved caspase-3 expression at 10 uM preincubated for 6 hrs followed by H2O2 addition and measured after 24 hrs by Western blot analysis; assay type: functional, cell-based; settings: time 30.0 hrs
SH-SY5Y [38] = assay: Neuroprotective activity against H2O2-induced apoptosis in human SH-SY5Y cells assessed as increase in Bcl-2 expression at 10 uM preincubated for 6 hrs followed by H2O2 addition and measured after 24 hrs by Western blot analysis; assay type: functional, cell-based; settings: time 30.0 hrs

Sequence of Acetylcholinesterase (Electrophorus electricus) (O42275 24-633 limits assumed): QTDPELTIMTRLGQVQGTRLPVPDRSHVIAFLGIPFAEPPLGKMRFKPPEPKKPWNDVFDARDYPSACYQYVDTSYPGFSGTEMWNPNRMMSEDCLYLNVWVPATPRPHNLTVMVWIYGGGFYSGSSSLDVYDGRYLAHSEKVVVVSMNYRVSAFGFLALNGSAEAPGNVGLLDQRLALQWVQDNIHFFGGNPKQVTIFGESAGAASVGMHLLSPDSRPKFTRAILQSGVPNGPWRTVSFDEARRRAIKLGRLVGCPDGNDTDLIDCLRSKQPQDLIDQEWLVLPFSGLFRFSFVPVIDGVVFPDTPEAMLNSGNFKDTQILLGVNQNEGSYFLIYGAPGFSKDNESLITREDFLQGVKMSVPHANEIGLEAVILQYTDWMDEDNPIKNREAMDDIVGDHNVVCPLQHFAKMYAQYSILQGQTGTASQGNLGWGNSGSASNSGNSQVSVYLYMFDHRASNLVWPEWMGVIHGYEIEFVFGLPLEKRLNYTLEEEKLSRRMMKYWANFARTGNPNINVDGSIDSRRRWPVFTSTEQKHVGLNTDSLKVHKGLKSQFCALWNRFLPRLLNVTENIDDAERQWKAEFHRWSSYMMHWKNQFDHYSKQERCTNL
Sequence of Acetylcholinesterase (O42275 whole entry): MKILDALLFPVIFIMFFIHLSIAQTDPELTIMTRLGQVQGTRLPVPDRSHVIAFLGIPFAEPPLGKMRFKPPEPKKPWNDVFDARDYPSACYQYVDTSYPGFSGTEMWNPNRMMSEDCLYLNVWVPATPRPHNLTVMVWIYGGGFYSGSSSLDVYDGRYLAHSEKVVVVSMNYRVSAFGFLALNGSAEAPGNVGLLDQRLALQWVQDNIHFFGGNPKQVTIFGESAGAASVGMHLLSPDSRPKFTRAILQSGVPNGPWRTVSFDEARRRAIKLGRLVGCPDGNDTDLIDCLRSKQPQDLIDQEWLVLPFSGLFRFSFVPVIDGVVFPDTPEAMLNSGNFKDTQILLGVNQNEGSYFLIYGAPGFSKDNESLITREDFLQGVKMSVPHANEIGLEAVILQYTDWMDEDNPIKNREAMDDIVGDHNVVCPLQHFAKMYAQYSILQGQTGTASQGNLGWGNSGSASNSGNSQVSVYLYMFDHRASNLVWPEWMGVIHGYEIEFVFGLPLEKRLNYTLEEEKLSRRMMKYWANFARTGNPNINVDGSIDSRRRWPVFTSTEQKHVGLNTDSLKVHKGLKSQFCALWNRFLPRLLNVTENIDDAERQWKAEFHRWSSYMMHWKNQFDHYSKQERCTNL

Cc1cc(COC(=O)NCCCCNc2c3c(nc4ccccc24)CCCC3)c(OCc2ccc(B3OC(C)(C)C(C)(C)O3)cc2)c(COC(=O)C(C)c2ccc(CC(C)C)cc2)c1 (stereo not given)
viability at 5 µM (SH-SY5Y [1]): > 50%
IC50 (Acetylcholinesterase): 80 nM
Activity (SH-SY5Y [2]): Non-Toxic
inhibition [3]: 46%
Activity (SH-SY5Y [4]): Toxic

Cc1cc(COC(=O)NCCCCCCNc2c3c(nc4ccccc24)CCCC3)c(OCc2ccc(B3OC(C)(C)C(C)(C)O3)cc2)c(COC(=O)C(C)c2ccc(CC(C)C)cc2)c1 (stereo not given)
Activity (SH-SY5Y [5]): 1.75%
viability at 24 h, 5 µM (in vitro): 90.4%
viability at 5 µM (SH-SY5Y [1]): > 50%
viability at 5 µM (SH-SY5Y [6]): 73.7%
Activity (HepG2): Toxic
viability at 20 µM (SH-SY5Y [7]): > 80%
Activity (SH-SY5Y [8]): 10.5%
fold change (FC) (BV-2 [9]): 1.6
Activity (SH-SY5Y [10]): Dose-dependent effect
IC50 (Acetylcholinesterase): 39.2 nM
Activity (Rattus norvegicus [11]): 4.2
Activity (SH-SY5Y [12]): 7.3%
Activity (SH-SY5Y [13]): 14.1%
Activity (SH-SY5Y [14]): 4.97%
Drug metabolism [15]: Metabolite_Detected
Activity (BV-2 [16]): Active
Time (Rattus norvegicus [17]): 2.2 s
inhibition [3]: 47.2%
Activity (SH-SY5Y [18]): Dose-dependent effect
Activity (SH-SY5Y [19]): 2.57%
Activity (SH-SY5Y [20]): Active
Activity (SH-SY5Y [21]): Dose-dependent effect
viability at 10 µM (SH-SY5Y [22]): 86.6%
Activity (SH-SY5Y [23]): 2.48%
Activity (BV-2 [24]): Dose-dependent effect
Activity (SH-SY5Y [25]): Dose-dependent effect
Activity (SH-SY5Y [26]): 1.65%
Activity (SH-SY5Y [27]): 1.17%
Activity (Rattus norvegicus [28]): Active
Activity (SH-SY5Y [4]): Non-Toxic
fold change (FC) (BV-2 [29]): 0.86
fold change (FC) (BV-2 [30]): 1.36
Activity (BV-2 [31]): Dose-dependent effect
fold change (FC) (BV-2 [32]): 1.2

Cc1cc(COC(=O)CCCCCOc2ccc3ccc(=O)oc3c2)c(OCc2ccc(B3OC(C)(C)C(C)(C)O3)cc2)c(COC(=O)C(C)c2ccc(CC(C)C)cc2)c1 (stereo not given)
Drug uptake [33]: Active
Drug uptake [34]: Active

Cc1cc(COC(=O)NCCCNc2c3c(nc4ccccc24)CCCC3)c(OCc2ccc(B3OC(C)(C)C(C)(C)O3)cc2)c(COC(=O)C(C)c2ccc(CC(C)C)cc2)c1 (stereo not given)
viability at 5 µM (SH-SY5Y [1]): > 50%
viability at 20 µM (SH-SY5Y [7]): > 80%
IC50 (Acetylcholinesterase): 302 nM
inhibition [3]: 32.9%
Activity (SH-SY5Y [35]): Toxic

Cc1cc(COC(=O)NCCNc2c3c(nc4ccccc24)CCCC3)c(OCc2ccc(B3OC(C)(C)C(C)(C)O3)cc2)c(COC(=O)C(C)c2ccc(CC(C)C)cc2)c1 (stereo not given)
viability at 5 µM (SH-SY5Y [1]): > 50%
viability at 20 µM (SH-SY5Y [7]): > 80%
IC50 (Acetylcholinesterase): 608 nM
Activity (SH-SY5Y [2]): Non-Toxic
inhibition [3]: 28.2%
Activity (SH-SY5Y [4]): Toxic

COc1cc(/C=C/C(=O)O)ccc1O
Activity (SH-SY5Y [36]): Active
Activity (SH-SY5Y [37]): Active
Activity (SH-SY5Y [38]): Active
